Data as given in the NIST ThermoML archive (doi:10.1021/je5002686).
Values joined by “and” are separate entries in the source; they are usually repeats but may differ in a detail not shown here. Equal entries are not always repeated.

Conditions: Liquid, Vibrating tube method

CCOC(F)(C(F)(F)C(F)(F)C(F)(F)F)C(F)(C(F)(F)F)C(F)(F)F (configuration not stated) [2-trifluoromethyl-3-ethoxydodecafluorohexane]
mass density
Conditions	310 K	330 K	350 K
490 kPa	–	1555.1 kg/m3	–
500 kPa	–	1555.2 kg/m3 and 1555 kg/m3	1511.4 kg/m3 and 1511.5 kg/m3
510 kPa	–	–	1511.6 kg/m3
990 kPa	–	–	1513.6 kg/m3
1000 kPa	–	1556.9 kg/m3 and 1556.7 kg/m3	1513.7 kg/m3 and 1513.5 kg/m3
1990 kPa	–	1560.4 kg/m3	1517.8 kg/m3
2000 kPa	–	1560.2 kg/m3 and 1560.3 kg/m3	1517.6 kg/m3 and 1517.8 kg/m3
2990 kPa	–	1563.6 kg/m3	1521.8 kg/m3
3000 kPa	–	1563.8 kg/m3 and 1563.7 kg/m3	1521.9 kg/m3 and 1521.7 kg/m3
3990 kPa	–	1567 kg/m3	–
4000 kPa	–	1567.1 kg/m3 and 1566.9 kg/m3	1525.8 kg/m3 and 1525.6 kg/m3 and 1525.7 kg/m3
4990 kPa	–	1570.2 kg/m3	1529.4 kg/m3
5000 kPa	1610 kg/m3	1570.3 kg/m3 and 1570.1 kg/m3	1529.6 kg/m3 and 1529.5 kg/m3
5010 kPa	1610.3 kg/m3	–	–
9990 kPa	–	1585.3 kg/m3	1547.1 kg/m3
10000 kPa	1622.9 kg/m3 and 1623.3 kg/m3 and 1623 kg/m3	1585.1 kg/m3 and 1585.2 kg/m3	1546.9 kg/m3 and 1547 kg/m3
15000 kPa	1634.8 kg/m3 and 1635.2 kg/m3 and 1634.9 kg/m3	1598.9 kg/m3 and 1598.7 kg/m3 and 1598.8 kg/m3	1562.7 kg/m3 and 1562.5 kg/m3 and 1562.6 kg/m3
19990 kPa	1645.8 kg/m3 and 1645.9 kg/m3	1611.3 kg/m3 and 1611.2 kg/m3	1576.5 kg/m3 and 1576.6 kg/m3
20000 kPa	1646.2 kg/m3	1611.2 kg/m3	1576.8 kg/m3
24990 kPa	–	–	1589.6 kg/m3 and 1589.4 kg/m3 and 1589.5 kg/m3
25000 kPa	1656.1 kg/m3	1622.9 kg/m3 and 1622.6 kg/m3 and 1622.7 kg/m3	–
25010 kPa	1656.5 kg/m3 and 1656.2 kg/m3	–	–
29990 kPa	1665.8 kg/m3	1633.5 kg/m3	1601.3 kg/m3
30000 kPa	1666.2 kg/m3	1633.4 kg/m3 and 1633.5 kg/m3	1601.5 kg/m3 and 1601.4 kg/m3
30010 kPa	1665.7 kg/m3	–	–
34990 kPa	1674.8 kg/m3	1643.6 kg/m3 and 1643.5 kg/m3	1612.3 kg/m3 and 1612.4 kg/m3
35000 kPa	1674.9 kg/m3	1643.4 kg/m3	1612.6 kg/m3
35010 kPa	1675.3 kg/m3	–	–
40000 kPa	1683.5 kg/m3 and 1683.9 kg/m3 and 1683.6 kg/m3	1653.1 kg/m3 and 1652.8 kg/m3 and 1652.9 kg/m3	–
44990 kPa	–	1661.8 kg/m3 and 1661.9 kg/m3	–
45000 kPa	1691.7 kg/m3 and 1692.2 kg/m3 and 1691.8 kg/m3	1662 kg/m3	–
49970 kPa	1699.6 kg/m3	–	–
49980 kPa	–	1670.4 kg/m3	–
49990 kPa	–	1670.3 kg/m3	–
50010 kPa	1699.6 kg/m3	1670.6 kg/m3	–
50050 kPa	1700.1 kg/m3	–	–
